Experimental data published in patent US11319347B2, “Peptide compound and method for producing same, composition for screening use, and method for selecting peptide compound” (FUJIFILM Corporation, priority 2017, dated 2022).
Starred links: 1 amine or outer side, 2 acyl side, 3 side chain; linkers in the order of their positions; H or OH if unused. Positions of bridges follow the written chain, without caps; N, C: chain ends. Non-standard residues stand in square brackets, D forms with d. Residues, ends and D or L forms follow the SMILES beside them. Phe(3-(4R-CO-2-thiazolinyl)) = O=C([C@H](Cc1cccc(C2=N[C@H](C(=O)[*:3])CS2)c1)N[*:1])[*:2]; dCha = N[C@H](CC1CCCCC1)C(=O)O

Key:
[1] = Membrane permeability of synthesized cyclic peptides by PAMPA (Measurement Method A: 1 μmol/L; Method B: 10 μmol/L); format: in vitro ADME; conditions: Measurement method A, 25° C., 4 hours
Experimental: Evaluation of membrane permeability of synthesized cyclic peptide by PAMPA method In order to compare and examine the membrane permeability of the synthesized cyclic peptide, parallel artificial membrane permeability assay (PAMPA) was carried out.
An artificial phospholipid membrane was produced by adding 5 μL of a phospholipid organic solvent solution consisting of L-α-phosphatidylcholine (Avanti Polar Lipids, Inc., Cat. 840051P, 1.67%), 1,2-dioleoyl-sn-glycero-3-phospho-L-serine (Avanti Polar Lipids, Inc., Cat. 840035P, 0.33%), and n-dodecane special grade (Wako Pure Chemical Industries, Ltd., 047-21612)/1-octanol reagent special grade (Kanto Chemical Co., Inc., Cat. 31013-08)=10:1 to Filter Plate (Merck Millipore Corporation, Cat. MAIPN4550).
475 μL of 50 mmol/L potassium phosphate buffer (KPB, pH 7.4 or pH 6.5) was added to 25 μL of a DMSO solution containing the compound at a concentration of 20 μmol/L, so that the compound was diluted to a final concentration of 1 μmol/L. 300 μL of the compound solution was added to the lower side (donor side) of PAMPA 96-well plate (Filter Plate (Merck Millipore Corporation, Cat. MAIPN4550)) with an artificial phospholipid membrane being interposed therebetween. 200 μL of 5% DMSO KPB (pH 7.4) was added to the upper side (acceptor side) with the artificial phospholipid membrane being interposed therebetween. A permeation test through an artificial phospholipid membrane was carried out at 25° C. for 4 hours. The compound concentration in the solution in the donor plate and the acceptor plate was measured by LC/MS/MS, and the membrane permeation rate (Pe) of the compound was calculated from the following formula, assuming that C0 is an initial compound concentration in donor solution, t is a test time, A is a membrane filter area=0.3 cm^2, VD is a donor solution amount=300 μL, VA is an acceptor solution amount=200 μL, and CD(t) is a compound concentration in donor solution at time t, CA(t) is a compound concentration in acceptor solution at time t, and Cequilibrium=[CD(t)*VD+CA(t)*VA]/(VD+VA).
475 μL of 50 mmol/L potassium phosphate buffer (KPB, pH 7.4 or pH 6.5) was added to 25 μL of a DMSO solution containing the compound at a concentration of […], so that the compound was diluted to a final concentration of 10 μmol/L. The compound solution was added 300 μL each to the lower side (donor side) of an artificial phospholipid membrane of PAMPA 96-well plate (Filter Plate (Merck Millipore Corporation, Cat. MAIPN4550)). 200 μL of 5% DMSO KPB (pH 7.4) was added to the upper side (acceptor side) with the artificial phospholipid membrane being interposed therebetween. A permeation test through an artificial phospholipid membrane was carried out at 25° C. for 4 hours. The compound concentration in the solution in the donor plate and the acceptor plate was measured by LC/MS/MS, and the membrane permeation rate (Pe) of the compound was calculated from the following formula, assuming that Co is an initial compound concentration in donor solution, t is a test time, A is a membrane filter area=0.3 cm^2, VD is a donor solution amount=300 μL, VA is an acceptor solution amount=200 μL, and CD(t) is a compound concentration in donor solution at time t, CA(t) is a compound concentration in acceptor solution at time t, and Cequilibrium=[CD(t)*VD+CA(t)*VA]/(VD+VA).
The membrane permeability (Pe(10^−6 cm/s)) obtained by this method is described in the following table.
(§1) Evaluation standards are as follows.

[2] = Metabolic stability of cyclic peptides in human liver microsomes (HLM residual rate); format: in vitro ADME; conditions: 1 μmol/L, human liver microsomes 0.5 mg protein/mL, 37° C., 20 minutes, NADPH and UDPGA
Experimental: Test of metabolic stability of cyclic peptide in human liver microsome
An experiment using human liver microsomes (HLMs) was carried out in order to compare and examine the metabolic stability of the synthesized cyclic peptides.
The compound with a final concentration of 1 μmol/L was incubated in human liver microsomes (BD Cat #452117) prepared to a final concentration of 0.5 mg protein/mL using 100 mmol/L phosphate buffer (pH 7.4) at 37° C. for 20 minutes in the presence of reduced nicotinamide adenine dinucleotide phosphate (NADPH) and uridine 5′-diphosphate-α-D-glucuronic acid (UDPGA). Deproteinization treatment with acetonitrile was carried out, the amount of unaltered substance remaining was quantified using LC/MS/MS, and the residual rate (%) in 20 minutes was calculated. The HLM residual rate (%) obtained by this method is described in the following table.
as §1

SMILES	Pe(10^−6 cm/sec) [1]	HLM residual rate [2]
N=C(N)NCCC[C@@H]1NC(=O)[C@H](Cc2c[nH]c3ccccc23)NC(=O)[C@@H](CC2CCCCC2)NC(=O)[C@@H]2CCCN2C(=O)[C@@H]2CSC(=N2)c2cc3c(cccc3s2)C[C@@H](C(N)=O)NC1=O [2-1]	+++ (0.5<Pe (10^−6 cm/s))	+++ (60%<HLM residual rate (%))
N=C(N)NCCC[C@@H]1NC(=O)[C@H](Cc2c[nH]c3ccccc23)NC(=O)[C@@H](CC2CCCCC2)NC(=O)[C@@H]2CCCN2C(=O)[C@@H]2CSC(=N2)c2ccncc2C[C@@H](C(N)=O)NC1=O [2-5]	++ (0.2<Pe (10^−6 cm/s)≤0.5)	++ (40%<HLM residual rate (%)≤60%)
N=C(N)NCCC[C@@H]1NC(=O)[C@H](Cc2c[nH]c3ccccc23)NC(=O)[C@@H](CC2CCCCC2)NC(=O)[C@@H]2CCCN2C(=O)[C@@H]2CSC(=N2)c2cccnc2C[C@@H](C(N)=O)NC1=O [2-6]	++ (0.2<Pe (10^−6 cm/s)≤0.5)	+++ (60%<HLM residual rate (%))
N=C(N)NCCC[C@@H]1NC(=O)[C@H](Cc2c[nH]c3ccccc23)NC(=O)[C@@H](CC2CCCCC2)NC(=O)[C@@H]2CCCN2C(=O)[C@@H]2CSC(=N2)c2cncc(c2)C[C@@H](C(N)=O)NC1=O [2-7]	+++ (0.5<Pe (10^−6 cm/s))	+++ (60%<HLM residual rate (%))
N=C(N)NCCC[C@@H]1NC(=O)[C@H](Cc2c[nH]c3ccccc23)NC(=O)[C@@H](CC2CCCCC2)NC(=O)[C@@H]2CCCN2C(=O)[C@@H]2CSC(=N2)c2ccnc(c2)C[C@@H](C(N)=O)NC1=O [2-10]	+++ (0.5<Pe (10^−6 cm/s))	+++ (60%<HLM residual rate (%))
N=C(N)NCCC[C@@H]1NC(=O)[C@H](Cc2c[nH]c3ccccc23)NC(=O)[C@@H](CC2CCCCC2)NC(=O)[C@@H]2CCCN2C(=O)[C@@H]2CSC(=N2)c2ccc(nc2)C[C@@H](C(N)=O)NC1=O [2-11]	+++ (0.5<Pe (10^−6 cm/s))	+++ (60%<HLM residual rate (%))
N=C(N)NCCC[C@@H]1NC(=O)[C@H](Cc2c[nH]c3ccccc23)NC(=O)[C@@H](CC2CCCCC2)NC(=O)[C@@H]2CCCN2C(=O)[C@@H]2CSC(=N2)c2cnc(cn2)C[C@@H](C(N)=O)NC1=O [2-13]		+++ (60%<HLM residual rate (%))
N=C(N)NCCC[C@@H]1NC(=O)[C@H](Cc2c[nH]c3ccccc23)NC(=O)[C@@H](CC2CCCCC2)NC(=O)[C@@H]2CCCN2C(=O)[C@@H]2CSC(=N2)c2cncc(n2)C[C@@H](C(N)=O)NC1=O [2-14]		+++ (60%<HLM residual rate (%))
N=C(N)NCCC[C@@H]1NC(=O)[C@H](Cc2c[nH]c3ccccc23)NC(=O)[C@@H](CC2CCCCC2)NC(=O)[C@@H]2CCCN2C(=O)[C@@H]2CSC(=N2)c2ccc(nn2)C[C@@H](C(N)=O)NC1=O [2-15]		++ (40%<HLM residual rate (%)≤60%)
N=C(N)NCCC[C@@H]1NC(=O)[C@H](Cc2c[nH]c3ccccc23)NC(=O)[C@@H](CC2CCCCC2)NC(=O)[C@@H]2CCCN2C(=O)[C@@H]2CSC(=N2)c2cc(cs2)C[C@@H](C(N)=O)NC1=O [2-16]	+++ (0.5<Pe (10^−6 cm/s))	++ (40%<HLM residual rate (%)≤60%)
N=C(N)NCCC[C@@H]1NC(=O)[C@H](Cc2c[nH]c3ccccc23)NC(=O)[C@@H](CC2CCCCC2)NC(=O)[C@@H]2CCCN2C(=O)[C@@H]2CSC(=N2)c2nc(cs2)C[C@@H](C(N)=O)NC1=O [2-18]		++ (40%<HLM residual rate (%)≤60%)
N=C(N)NCCC[C@@H]1NC(=O)[C@H](Cc2c[nH]c3ccccc23)NC(=O)[C@@H](CC2CCCCC2)NC(=O)[C@@H]2CCCN2C(=O)[C@@H]2CSC(=N2)c2csc(n2)C[C@@H](C(N)=O)NC1=O [2-19]	+++ (0.5<Pe (10^−6 cm/s))	+++ (60%<HLM residual rate (%))
N=C(N)NCCC[C@@H]1NC(=O)[C@H](Cc2c[nH]c3ccccc23)NC(=O)[C@@H](CC2CCCCC2)NC(=O)[C@@H]2CCCN2C(=O)[C@@H]2CSC(=N2)c2n[nH]cc2C[C@@H](C(N)=O)NC1=O [2-20]		++ (40%<HLM residual rate (%)≤60%)
CC1(C)SC2=N[C@@H]1C(=O)N1CCC[C@H]1C(=O)N[C@H](CC1CCCCC1)C(=O)N[C@@H](Cc1c[nH]c3ccccc13)C(=O)N[C@@H](CCCNC(=N)N)C(=O)N[C@H](C(N)=O)Cc1cccc2n1 [2-21]	+++ (0.5<Pe (10^−6 cm/s))	+++ (60%<HLM residual rate (%))
COc1cc2cnc1C1=N[C@@H](CS1)C(=O)N1CCC[C@H]1C(=O)N[C@H](CC1CCCCC1)C(=O)N[C@@H](Cc1c[nH]c3ccccc13)C(=O)N[C@@H](CCCNC(=N)N)C(=O)N[C@H](C(N)=O)C2 [2-22]	++ (0.2<Pe (10^−6 cm/s)≤0.5)	+++ (60%<HLM residual rate (%))
N=C(N)NCCC[C@@H]1NC(=O)[C@H](Cc2c[nH]c3ccccc23)NC(=O)[C@@H](CC2CCCCC2)NC(=O)[C@@H]2CCCN2C(=O)[C@@H]2CSC(=N2)c2cc3cc(ccc3[nH]2)C[C@@H](C(N)=O)NC1=O [3-2]	+++ (0.5<Pe (10^−6 cm/s))	+++ (60%<HLM residual rate (%))
N=C(N)NCCC[C@@H]1NC(=O)[C@H](Cc2c[nH]c3ccccc23)NC(=O)[C@@H](CC2CCCCC2)NC(=O)[C@@H]2CCCN2C(=O)[C@@H]2CSC(=N2)c2ncccc2C[C@@H](C(N)=O)NC1=O [3-3]		+++ (60%<HLM residual rate (%))
N=C(N)NCCC[C@@H]1NC(=O)[C@H](Cc2c[nH]c3ccccc23)NC(=O)[C@@H](CC2CCCCC2)NC(=O)[C@@H]2CCCN2C(=O)[C@@H]2CSC(=N2)c2cccc(c2)C[C@@H](C(N)=O)NC1=O [3-4] (P[dCha]WR[Phe(3-(4R-CO-2-thiazolinyl))]-NH2; lactam N-5)	+++ (0.5<Pe (10^−6 cm/s))	+++ (60%<HLM residual rate (%))
N=C(N)NCCCC1NC(=O)[C@H](Cc2c[nH]c3ccccc23)NC(=O)[C@@H](CC2CCCCC2)NC(=O)[C@@H]2CCCN2C(=O)c2csc(n2)-c2cccc(c2)C[C@@H](C(N)=O)NC1=O (stereo partly drawn) [6-1]	+++ (0.5<Pe (10^−6 cm/s))	+++ (60%<HLM residual rate (%))
C[C@@H]1NC(=O)CSC[C@@H](C(N)=O)NC(=O)[C@H](CCCNC(=N)N)NC(=O)[C@H](Cc2c[nH]c3ccccc23)NC(=O)[C@@H](CC2CCCCC2)NC(=O)[C@@H]2CCCN2C1=O [7-1] ({CH2CO}-AP[dCha]WRC-NH2; thioether N-6)	+ (0.01<Pe (10^−6 cm/s)≤0.2)	+ (HLM residual rate (%)≤40%)
CC(=O)N[C@H]1CSSC[C@@H](C(N)=O)NC(=O)[C@H](CCCNC(=N)N)NC(=O)[C@H](Cc2c[nH]c3ccccc23)NC(=O)[C@@H](CC2CCCCC2)NC(=O)[C@@H]2CCCN2C1=O [9-1] (Ac-CP[dCha]WRC-NH2; disulfide 1-6)	+ (0.01<Pe (10^−6 cm/s)≤0.2)	+ (HLM residual rate (%)≤40%)
